In brackets after ≈: the same amount, converted by molar mass. Where two headings read alike, the source gives them in different places.
Experiments:
[1] = system: Escherichia coli ATCC 25922; test: Minimum inhibitory concentration, broth micro-dilution (CLSI), E. coli; assay type: cell-based; settings: Escherichia coli, ATCC25922, 22 h, 35° C., 22 hours
[2] = molecular target: T1, SpsB (Staphylococcus aureus signal peptidase) (Staphylococcus aureus, UniProt P0A070); test: cell-based; assay type: biochemical; settings: SpsB IC50, whole-cell S. aureus (USA300 background, overexpressing SpsB) as SpsB source; fluorogenic peptide substrate, kinetic read 30 min
T1 construct: This assay uses a suspension of Staphylococcus aureus cells as a source of SpsB instead of recombinant SpsB protein; endogenous in cells; host or cells: S. aureus, USA300 background, overexpressing SpsB (whole-cell suspension from frozen pellets)
T1 sequence (P0A070 whole entry): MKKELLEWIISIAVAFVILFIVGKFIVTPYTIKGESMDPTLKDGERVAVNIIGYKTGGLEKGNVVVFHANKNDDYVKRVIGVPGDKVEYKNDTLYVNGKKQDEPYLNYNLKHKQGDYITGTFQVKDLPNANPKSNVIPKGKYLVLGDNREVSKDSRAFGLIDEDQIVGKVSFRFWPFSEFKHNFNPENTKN
Method in brief: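 Cleavage of an internally quenched (Dabcyl)βAla-KPAKAAE(Edans) peptide, added as 20 μM solution mixed 1:1 with cells, was followed for 30 min at 340/490 nm. SpsB came from a suspension of SpsB-overexpressing USA300 S. aureus in Tween-80-containing PBS buffer. Slopes plotted against 3-fold compound dilutions gave IC50.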

[3] = system: Escherichia coli MC4100 harboring the IMP4213 (E. coli IMP); test: microbe, parasite or virus in culture; assay type: cell-based; settings: Escherichia coli, 22 h, read-out: MIC (μg/mL) E. coli IMP, E. coli MC4100 IMP4213, increased outer-membrane permeability; 35° C., 22 hours
Method in brief: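 Top conc 4 μg/mL (protocol 2) or 0.5 μg/mL (protocol 3), 2-fold series, 10 points. Final OD600 0.0005; 22 h, 35° C. IMP4213 = permeable outer membrane.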

[4] = system: Methicillin Resistant Staphylococcus aureus strain USA 300, NRS384; test: Minimum inhibitory concentration, broth micro-dilution (CLSI), S. aureus; assay type: cell-based; settings: Staphylococcus aureus, MRSA / NRS 384 / USA300, 22 h, 35° C., 22 hours
Method in brief: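 CLSI broth microdilution in cation-adjusted Mueller Hinton Broth with 0.002% Tween-80; inoculum final OD600 0.0005, 22 hours at 35° C. Ten 2-fold dilutions starting at 4 μg/mL (protocol 2) or 0.5 μg/mL (protocol 3).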

[5] = read-out: MIC (μg/mL) E. coli, E. coli ATCC 25922
[6] = read-out: MIC (μg/mL) S. aureus, MRSA USA 300 NRS384
[7] = E. coli ATCC 25922, read-out: MIC (μg/mL) E. coli
[8] = MRSA USA 300 NRS384, read-out: MIC (μg/mL) S. aureus

| SMILES | MIC [1, 5] [µg/mL] | IC50 [2] [nM] | MIC [3] [µg/mL] | MIC [4, 6] [µg/mL] | MIC [1, 7] [µg/mL] | MIC [4, 8] [µg/mL] |
| --- | --- | --- | --- | --- | --- | --- |
| C[C@@H]1NC(=O)[C@@H](N(C)C(=O)[C@H](CCN)NC(=O)c2ccc(C#CC3CCCCC3)cc2C(F)F)c2ccc(OCCN)c(c2)-c2cc(ccc2OCCN)C[C@@H](C(=O)NCC#N)NC1=O [Compound 311] | 0.25 (≈ 0.278 µM) | 0.64 | 0.012 (≈ 0.0134 µM) | 0.047 (≈ 0.0523 µM) |  |  |
| C[C@@H]1NC(=O)[C@@H](N(C)C(=O)[C@H](CCCCN)NC(=O)c2ccc(-c3ccc(Cl)cc3)cc2)c2ccc(OCCN)c(c2)-c2cc(ccc2O)C[C@@H](C(=O)N[C@@H](C)C#N)NC1=O [Compound 319] | > 64 | 6.3 | 0.75 (≈ 0.881 µM) | 2 (≈ 2.35 µM) |  |  |
| C[C@@H]1NC(=O)[C@@H](N(C)C(=O)[C@H](CCN)NC(=O)c2ccc(C#Cc3ccccc3)cc2F)c2ccc(OCCN)c(c2)-c2cc(ccc2OCCN)C[C@@H](C(=O)NCC#N)NC1=O [Compound 423] | 0.44 (≈ 0.512 µM) | 0.85 | 0.014 (≈ 0.0163 µM) | 0.063 (≈ 0.0733 µM) |  |  |
| CCCCc1ccc(/C=C/C(=O)N[C@@H](CCN)C(=O)N(C)[C@@H]2C(=O)N[C@@H](C)C(=O)N[C@H](C(=O)NCC#N)Cc3ccc(OCCN)c(c3)-c3cc2ccc3OCCN)cc1 [Compound 428] |  | 1.2 | 0.023 (≈ 0.0279 µM) |  | 1 (≈ 1.21 µM) | 0.094 (≈ 0.114 µM) |
| CCCCCc1ccc(CNCCC(=O)N(C)[C@@H]2C(=O)N[C@@H](C)C(=O)N[C@H](C(=O)NCC#N)Cc3ccc(OCCN)c(c3)-c3cc2ccc3OCCN)c(C)c1 [Compound 462] |  | 0.81 | 4 (≈ 5.11 µM) |  | 64 (≈ 81.7 µM) | 0.094 (≈ 0.12 µM) |
| CCCCCCCCCCNCCC(=O)N[C@@H](CCCCN)C(=O)N(C)[C@@H]1C(=O)N[C@@H](C)C(=O)N[C@H](C(=O)NC(C)C#N)Cc2ccc(OCCN)c(c2)-c2cc1ccc2OCCN (stereo partly shown) [Compound 415] | 64 (≈ 71.8 µM) | 14 | 4 (≈ 4.49 µM) | > 4 |  |  |
| CCCCCCCCc1cc(C)c(C(=O)N[C@@H](CCN)C(=O)N(C)[C@@H]2C(=O)N[C@@H](C)C(=O)N[C@H](C(=O)NCC#N)Cc3ccc(OCCN)c(c3)-c3cc2ccc3OCCN)s1 [Compound 438] |  | 0.78 | 0.031 (≈ 0.0355 µM) |  | 0.38 (≈ 0.435 µM) | 0.063 (≈ 0.0721 µM) |
| CCCCCCCCc1ccc(C(=O)N(C)[C@@H]2C(=O)N[C@@H](C)C(=O)N[C@H](C(=O)NCC#N)Cc3ccc(OCCN)c(c3)-c3cc2ccc3OCCN)cc1 [Compound 476] |  | 86 | 8 (≈ 10.6 µM) |  | 32 (≈ 42.4 µM) | 2 (≈ 2.65 µM) |
| CCCCCCCOc1ccc(C(=O)N[C@@H](CCCN)C(=O)N(C)[C@@H]2C(=O)N[C@@H](C)C(=O)N[C@H](C(=O)NCC#N)Cc3ccc(OCCN)c(c3)-c3cc2ccc3OCCN)c(C)c1 [Compound 281] |  | 0.75 | 0.0078 (≈ 0.00882 µM) |  | 0.25 (≈ 0.283 µM) | 0.023 (≈ 0.026 µM) |
| CCC(C)(C)c1ccc(C(=O)N[C@@H](CCN)C(=O)N(C)[C@@H]2C(=O)N[C@@H](C)C(=O)N[C@H](C(=O)NCC#N)Cc3ccc(OCCN)c(c3)-c3cc2ccc3OCCN)c(C)c1 [Compound 265] | 2.5 (≈ 3.03 µM) | 0.89 | 0.043 (≈ 0.0521 µM) | 0.13 (≈ 0.157 µM) |  |  |
| CCCCCCCCc1ccc(C(=O)N[C@@H](CCN)C(=O)N(C)[C@@H]2C(=O)N[C@@H](C)C(=O)N[C@H](C(=O)NCC#N)Cc3ccc(OCCN)c(c3)-c3cc2ccc3OCCN)c(/C=C/C(N)=O)c1 [Compound 450] |  | 0.66 | 0.063 (≈ 0.0682 µM) |  | 16 (≈ 17.3 µM) | 0.13 (≈ 0.141 µM) |
| CCCCc1ccc(C(=O)NCC(=O)NCC(=O)N[C@@H](CCN)C(=O)N(C)[C@@H]2C(=O)N[C@@H](C)C(=O)N[C@H](C(=O)NCC#N)Cc3ccc(OCCN)c(c3)-c3cc2ccc3OCCN)c(C)c1 [Compound 371] | 32 (≈ 34.6 µM) | 1.3 | 0.5 (≈ 0.54 µM) | 0.25 (≈ 0.27 µM) |  |  |
| CCCCCCCCCCCCCC(=O)N[C@@H](CCN)C(=O)N(C)[C@@H]1C(=O)N[C@@H](C)C(=O)N[C@H](C(=O)NCC#N)Cc2ccc(OCCN)c(c2)-c2cc1ccc2OCC [Compound 330] |  | 1 | 0.063 (≈ 0.0756 µM) |  | 1 (≈ 1.2 µM) | 0.25 (≈ 0.3 µM) |
| CCCCc1ccc(C(=O)NCC(=O)N[C@@H](CCN)C(=O)N(C)[C@@H]2C(=O)N[C@@H](C)C(=O)N[C@H](C(=O)NCC#N)Cc3ccc(OCCN)c(c3)-c3cc2ccc3OCCN)c(C)c1 [Compound 370] | 16 (≈ 18.4 µM) | 1.1 | 0.13 (≈ 0.15 µM) | 0.19 (≈ 0.219 µM) |  |  |
| CCCCCCCCCCCCCC(=O)N[C@@H](CN)C(=O)N(C)[C@@H]1C(=O)N[C@@H](C)C(=O)N[C@H](C(=O)N[C@@H](C)C#N)Cc2ccc(OCCN)c(c2)-c2cc1ccc2OCCN [Compound 342] |  | 1.3 | 0.063 (≈ 0.0743 µM) |  | 0.5 (≈ 0.59 µM) | 0.19 (≈ 0.224 µM) |
| CCCCCc1ccc(C(=O)N[C@@H](CCN)C(=O)N(C)[C@@H]2C(=O)N[C@@H](C)C(=O)N[C@H](C(=O)NCC#N)Cc3ccc(OCCN)c(c3)-c3cc2ccc3OCCN)c(C2CC2)c1 [Compound 229] |  | 0.92 | 0.016 (≈ 0.0188 µM) |  | 1.5 (≈ 1.76 µM) | 0.047 (≈ 0.0552 µM) |
| CCCCc1ccc(C(=O)N[C@H](CCC)C(=O)N[C@@H](CCN)C(=O)N(C)[C@@H]2C(=O)N[C@@H](C)C(=O)N[C@H](C(=O)NCC#N)Cc3ccc(OCCN)c(c3)-c3cc2ccc3OCCN)c(C)c1 [Compound 354] | 8 (≈ 8.78 µM) | 1.8 | 0.063 (≈ 0.0691 µM) | 0.25 (≈ 0.274 µM) |  |  |
| CCCCCCCCCCCCCC(=O)N[C@@H](CCCCN)C(=O)N(C)[C@@H]1C(=O)N[C@@H](C)C(=O)N[C@H](C(=O)NCC#N)Cc2ccc(OCCN)c(c2)-c2cc1ccc2OCCN [Compound 334] |  | 1.3 | < 0.063 |  | 0.5 (≈ 0.571 µM) | < 0.063 |
| CCCCOc1ccc(C(=O)N[C@@H](CCN)C(=O)N(C)[C@@H]2C(=O)N[C@@H](C)C(=O)N[C@H](C(=O)NCC#N)Cc3ccc(OCCN)c(c3)-c3cc2ccc3OCCN)c(Cl)c1 [Compound 269] |  | 1.2 | 0.023 (≈ 0.0271 µM) |  | 1 (≈ 1.18 µM) | 0.25 (≈ 0.295 µM) |
| CCCCCCCCc1ccc(C(=O)N[C@@H](CCN)C(=O)N(C)[C@@H]2C(=O)N[C@@H](C)C(=O)N[C@H](C(=O)NCC#N)Cc3ccc(OCCN)c(c3)-c3cc2ccc3OCCN)c(Cl)c1 [Compound 210] |  | 0.8 | 0.029 (≈ 0.0326 µM) |  | 0.11 (≈ 0.124 µM) | 0.094 (≈ 0.106 µM) |
| CC(C)Cc1cnc(-c2ccc(C(=O)N[C@@H](CCN)C(=O)N(C)[C@@H]3C(=O)N[C@@H](C)C(=O)N[C@H](C(=O)NCC#N)Cc4ccc(OCCN)c(c4)-c4cc3ccc4OCCN)c3ccccc23)nc1 [Compound 182] |  | 3.2 | 0.13 (≈ 0.14 µM) |  | 12 (≈ 13 µM) | 0.5 (≈ 0.54 µM) |
| CCCCCCCCCC(=O)N[C@@H](CC(N)=O)C(=O)N(C)[C@@H]1C(=O)N[C@@H](C)C(=O)N[C@H](C(=O)NCC#N)Cc2ccc(OCCN)c(c2)-c2cc1ccc2OCCN [Compound 236] |  | 1.5 | 1.5 (≈ 1.86 µM) |  | > 64 | 1 (≈ 1.24 µM) |
| CCCCCCCSc1ccc(C(=O)N[C@@H](CCN)C(=O)N(C)[C@@H]2C(=O)N[C@@H](C)C(=O)N[C@H](C(=O)NCC#N)Cc3ccc(OCCN)c(c3)-c3cc2ccc3OCCN)c(C)c1 [Compound 389] |  | 0.81 | 0.031 (≈ 0.035 µM) |  | 0.25 (≈ 0.282 µM) | 0.063 (≈ 0.0711 µM) |
| CCCCCCCCCCNCCC(=O)N[C@@H](CCCCN)C(=O)N(C)[C@@H]1C(=O)N[C@@H](C)C(=O)N[C@H](C(=O)NCC#N)Cc2ccc(O)c(c2)-c2cc1ccc2OCCN [Compound 320] |  | 0.97 | 2 (≈ 2.4 µM) |  | > 64 | 0.13 (≈ 0.156 µM) |
| C[C@@H]1NC(=O)[C@@H](N(C)C(=O)[C@H](CCCCN)NC(=O)c2ccc(-c3ccc(Cl)cc3)cc2)c2ccc(OCC(O)CN)c(c2)-c2cc(ccc2O)C[C@@H](C(=O)NCC#N)NC1=O (mixture of isomers) [Compound 514] | 32 | 2 | 0.19 | 0.25 |  |  |
| CCCCCCCCc1ccc(C(=O)N[C@@H](CCN)C(=O)N(C)[C@@H]2C(=O)N[C@@H](C)C(=O)N[C@H](C(=O)NCC#N)Cc3ccc(OCCN)c(c3)-c3cc2ccc3OCCN)c(C)c1 [Compound 339] |  | < 0.5 | 0.018 (≈ 0.0207 µM) |  | 0.13 (≈ 0.15 µM) | 0.047 (≈ 0.0541 µM) |
| CCCCCCCCc1ccc(C(=O)N[C@@H](CCN)C(=O)N(C)[C@@H]2C(=O)N[C@@H](C)C(=O)N[C@H](C(=O)NCC#N)Cc3ccc(OCCN)c(c3)-c3cc2ccc3OCCN)c(OC)c1 [Compound 209] |  | 0.92 | 0.094 (≈ 0.106 µM) |  | 2 (≈ 2.26 µM) | 0.19 (≈ 0.215 µM) |
| Cc1cc(OCC(C)(C)C)ccc1C(=O)N[C@@H](CCN)C(=O)N(C)[C@@H]1C(=O)N[C@@H](C)C(=O)N[C@H](C(=O)NCC#N)Cc2ccc(OCCN)c(c2)-c2cc1ccc2OCCN [Compound 280] |  | 2 | 0.027 (≈ 0.0321 µM) |  | 0.63 (≈ 0.748 µM) | 0.13 (≈ 0.154 µM) |

Reference: patent US20180327367A1, “MACROCYCLIC BROAD SPECTRUM ANTIBIOTICS” (priority 2015, published 2018)
